*1 amine or outer side, *2 acyl side, *3 side chain or, on linkers, in order; H or OH if unused. Where a SMILES comes first, the peptide text is derived from it. Primed or numbered codes have the meaning given here. Side-chain parts run from the residue outwards. [ ]: non-standard residue; d: D form. The star is where a group is joined. X9 = CCCCCCCCCCCCCCCCCC(=O)N[C@@H](CCC(=O)N[C@@H](CCC(=O)N[C@@H](CCC(=O)NCCCC[C@H](NC(=O)COCC(=O)NCCCOCCOCCOCCCN*)C(N)=O)C(=O)O)C(=O)O)C(=O)O; PEG12 = NCCOCCOCCOCCOCCOCCOCCOCCOCCOCCOCCOCCOCCC(=O)O; γGlu = O=C(O)[C@H](CCC(=O)[*:2])N[*:1]; Stearoyl = CCCCCCCCCCCCCCCCCC(=O)*; Palmitoyl = CCCCCCCCCCCCCCCC(=O)*; Cit = NC(=O)NCCC[C@H](N)C(=O)O; αMeK = C[C@](N)(CCCCN)C(=O)O; αMeS = C[C@](N)(CO)C(=O)O; Nle = CCCC[C@H](N)C(=O)O; PEG2″ = not defined here; AEEA = NCCOCCOCC(=O)O; Aib = CC(C)(N)C(=O)O

This test addresses T1, RXFP1 (Homo sapiens, UniProt Q9HBX9).
T1 construct: OVCAR5 cells expressing endogenous RXFP1; endogenous in cells; host or cells: OVCAR5 cells
T1 sequence (Q9HBX9 1-757): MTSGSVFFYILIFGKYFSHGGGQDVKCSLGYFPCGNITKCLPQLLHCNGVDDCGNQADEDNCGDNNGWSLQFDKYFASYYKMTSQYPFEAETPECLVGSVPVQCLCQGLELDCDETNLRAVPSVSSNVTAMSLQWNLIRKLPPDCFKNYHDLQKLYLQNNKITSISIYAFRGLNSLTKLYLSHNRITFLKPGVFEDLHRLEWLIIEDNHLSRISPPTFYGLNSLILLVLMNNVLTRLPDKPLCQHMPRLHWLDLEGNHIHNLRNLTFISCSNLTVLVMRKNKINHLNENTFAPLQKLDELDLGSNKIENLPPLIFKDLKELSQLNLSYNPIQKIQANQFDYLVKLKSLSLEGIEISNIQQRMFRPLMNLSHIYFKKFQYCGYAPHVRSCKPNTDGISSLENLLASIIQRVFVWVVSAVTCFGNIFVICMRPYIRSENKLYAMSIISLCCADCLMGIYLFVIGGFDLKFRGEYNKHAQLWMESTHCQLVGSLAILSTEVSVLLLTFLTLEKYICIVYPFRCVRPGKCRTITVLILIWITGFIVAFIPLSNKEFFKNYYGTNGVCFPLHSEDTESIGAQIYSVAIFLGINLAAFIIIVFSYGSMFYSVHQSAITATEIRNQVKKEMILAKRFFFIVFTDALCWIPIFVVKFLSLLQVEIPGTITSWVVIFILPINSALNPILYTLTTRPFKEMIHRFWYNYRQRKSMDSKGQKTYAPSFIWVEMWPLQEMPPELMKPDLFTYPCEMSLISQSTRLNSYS
Kind of test: OVCAR5 cAMP assay (HTRF), RXFP1 agonist activity. Particulars: for EC50: OVCAR5 cells, cAMP HTRF, read-out: EC50 (nM), OVCAR 5 cells (cAMP); for Emax: OVCAR-5, read-out: EMax, OVCAR 5 cells (cAMP). Format: cell-based. A digest of the protocol: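 cAMP accumulation readout: after 1 mM IBMX for 40 min, endogenous-RXFP1 OVCAR5 cells got rising peptide concentrations without FCS, 30 min, 37° C, then lysis with HTRF cAMP reagents. Nonlinear regression gave EC50; Emax expressed relative to H2-relaxin maximum, same occasion.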
For orientation: Cyclic AMP is a second messenger, typically raised through Gs and lowered through Gi signalling.

[1] abbreviates: maximal cAMP relative to H2-relaxin maximum (100%).

What is called EC50 is the concentration needed to bring the measured effect to its halfway point. One may read the Emax as the greatest response seen or fitted, relative to the assay's reference. For `CCCCCCCCCCCCCCCCCC(=O)N[C@@H](CCC(=O)N[C@@H](CCC(=O)N[C@@H](CCC(=O)NCCCC[C@H](NC(=O)CCOCCOCCOCCOCCOCCOCCOCCOCCOCCOCCOCCOCCNC(=O)[C@H](CCCCNC(C)=O)NC(=O)[C@H](CCCCN)NC(=O)[C@H](CCCNC(=N)N)NC(=O)C(C)(C)NC(=O)[C@](C)(CO)NC(=O)[C@H](Cc1c[nH]c2ccccc12)NC(=O)[C@@H](NC(=O)[C@H](CO)NC(=O)[C@H](CCCC)NC(=O)CNC(=O)[C@H](CCC(=O)O)NC(=O)C(C)(C)NC(=O)C(C)(C)NC(=O)[C@@H](NC(=O)[C@H](CCCCNC(C)=O)NC(=O)[C@H](C)NC(=O)[C@H](CCCNC(=N)N)NC(=O)[C@@H](NC(=O)[C@H](CCCCN)NC(=O)[C@H](CCC(=O)O)NC(=O)[C@H](CCCNC(=N)N)NC(=O)CNC(=O)[C@H](CCC(=O)O)NC(=O)[C@H](CC(C)C)NC(C)=O)C(C)C)[C@@H](C)CC)[C@@H](C)O)C(N)=O)C(=O)O)C(=O)O)C(=O)O` [compound 41] (Ac-LEGREKVRAK(Ac)I[Aib][Aib]EG[Nle]STW[αMeS][Aib]RKK(Ac)[PEG12]K([γGlu-γGlu-γGlu-Stearoyl])-NH2), the EC50 turned out to be 0.09 nM. Further, the Emax under setting [1] came to 87%. As for `CCCCCCCCCCCCCCCCCC(=O)N[C@@H](CCC(=O)N[C@@H](CCC(=O)N[C@@H](CCC(=O)N[C@@H](CCC(=O)NCCOCCOCC(=O)NCCOCCOCC(=O)NCCOCCOCC(=O)NCCOCCOCC(=O)NCCCC[C@H](NC(=O)[C@H](CCCCNC(C)=O)NC(=O)[C@H](CCCCN)NC(=O)[C@H](CCCNC(=N)N)NC(=O)C(C)(C)NC(=O)[C@H](CO)NC(=O)[C@H](Cc1c[nH]c2ccccc12)NC(=O)[C@@H](NC(=O)[C@H](CO)NC(=O)[C@H](CCC(N)=O)NC(=O)CNC(=O)[C@H](CCC(=O)O)NC(=O)C(C)(C)NC(=O)C(C)(C)NC(=O)[C@@H](NC(=O)[C@H](CCCCNC(C)=O)NC(=O)[C@H](C)NC(=O)[C@H](CCCNC(=N)N)NC(=O)[C@@H](NC(=O)[C@H](CCCCN)NC(=O)[C@H](CCC(=O)O)NC(=O)[C@H](CCCNC(=N)N)NC(=O)CNC(=O)[C@H](CCC(=O)O)NC(=O)[C@H](CC(C)C)NC(C)=O)C(C)C)[C@@H](C)CC)[C@@H](C)O)C(N)=O)C(=O)O)C(=O)O)C(=O)O)C(=O)O` [compound 180] (Ac-LEGREKVRAK(Ac)I[Aib][Aib]EGQSTWS[Aib]RKK(Ac)K([AEEA-AEEA-AEEA-AEEA-γGlu-γGlu-γGlu-γGlu-Stearoyl])-NH2), the Emax under setting [1] worked out at 84%.

In the case of `CCCCCCCCCCCCCCCC(=O)N[C@@H](CCC(=O)N[C@@H](CCC(=O)N[C@@H](CCC(=O)NCCOCCOCC(=O)NCCOCCOCC(=O)NCCCC[C@H](NC(=O)[C@H](CCCCN)NC(=O)[C@H](CCCNC(=N)N)NC(=O)C(C)(C)NC(=O)[C@H](CO)NC(=O)[C@H](Cc1c[nH]c2ccccc12)NC(=O)[C@@H](NC(=O)[C@H](CO)NC(=O)[C@H](CCCC)NC(=O)CNC(=O)[C@H](CCC(=O)O)NC(=O)C(C)(C)NC(=O)C(C)(C)NC(=O)[C@@H](NC(=O)[C@H](CCCCNC(C)=O)NC(=O)[C@H](C)NC(=O)[C@H](CCCNC(=N)N)NC(=O)[C@@H](NC(=O)[C@H](CCCCN)NC(=O)[C@H](CCC(=O)O)NC(=O)[C@H](CCCNC(=N)N)NC(=O)CNC(=O)[C@H](CCC(=O)O)NC(=O)[C@H](CC(C)C)NC(C)=O)C(C)C)[C@@H](C)CC)[C@@H](C)O)C(N)=O)C(=O)O)C(=O)O)C(=O)O` [compound 59] (Ac-LEGREKVRAK(Ac)I[Aib][Aib]EG[Nle]STWS[Aib]RKK([AEEA-AEEA-γGlu-γGlu-γGlu-Palmitoyl])-NH2), the Emax under setting [1] came out at 85%. As to `CCCCCCCCCCCCCCCCCC(=O)N[C@@H](CCC(=O)N[C@@H](CCC(=O)N[C@@H](CCC(=O)NCCOCCOCC(=O)NCCOCCOCC(=O)NCCOCCOCC(=O)NCCCC[C@H](NC(=O)[C@H](CCCCNC(C)=O)NC(=O)[C@H](CCCCN)NC(=O)[C@H](CCCNC(N)=O)NC(=O)[C@](C)(CCCCN)NC(=O)[C@H](CO)NC(=O)[C@H](Cc1c[nH]c2ccccc12)NC(=O)[C@@H](NC(=O)[C@H](CO)NC(=O)[C@H](CCCC)NC(=O)CNC(=O)[C@H](CCC(=O)O)NC(=O)C(C)(C)NC(=O)C(C)(C)NC(=O)[C@@H](NC(=O)[C@H](CCCCNC(C)=O)NC(=O)[C@H](C)NC(=O)[C@H](CCCNC(=N)N)NC(=O)[C@@H](NC(=O)[C@H](CCCCN)NC(=O)[C@H](CCC(=O)O)NC(=O)[C@H](CCCNC(=N)N)NC(=O)CNC(=O)[C@H](CCC(=O)O)NC(=O)[C@H](CC(C)C)NC(C)=O)C(C)C)[C@@H](C)CC)[C@@H](C)O)C(N)=O)C(=O)O)C(=O)O)C(=O)O` [compound 129] (Ac-LEGREKVRAK(Ac)I[Aib][Aib]EG[Nle]STWS[αMeK][Cit]KK(Ac)K([AEEA-AEEA-AEEA-γGlu-γGlu-γGlu-Stearoyl])-NH2), the EC50 came out at 1 nM. The Emax under setting [1] is 89%. In the case of `CCCCCCCCCCCCCCCC(=O)N[C@@H](CCC(=O)NCCCC[C@H](NC(=O)CC[C@H](NC(=O)CC[C@H](NC(=O)COCCOCCNC(=O)COCCOCCNC(=O)[C@H](CCCCNC(C)=O)NC(=O)[C@H](CCCCN)NC(=O)[C@H](CCCNC(=N)N)NC(=O)C(C)(C)NC(=O)[C@H](CO)NC(=O)[C@H](Cc1c[nH]c2ccccc12)NC(=O)[C@@H](NC(=O)[C@H](CO)NC(=O)[C@H](CCCC)NC(=O)CNC(=O)[C@H](CCC(=O)O)NC(=O)C(C)(C)NC(=O)C(C)(C)NC(=O)[C@@H](NC(=O)[C@H](CCC(N)=O)NC(=O)[C@H](C)NC(=O)[C@H](CCCNC(=N)N)NC(=O)[C@@H](NC(=O)[C@H](CCCCN)NC(=O)[C@H](CCC(=O)O)NC(=O)[C@H](CCCNC(=N)N)NC(=O)CNC(=O)[C@H](CCC(=O)O)NC(=O)[C@H](CC(C)C)NC(C)=O)C(C)C)[C@@H](C)CC)[C@@H](C)O)C(=O)O)C(=O)O)C(N)=O)C(=O)O` [compound 118] (Ac-LEGREKVRAQI[Aib][Aib]EG[Nle]STWS[Aib]RKK(Ac)[AEEA][AEEA][γGlu][γGlu]K([γGlu-Palmitoyl])-NH2), the Emax under setting [1] came to 86%.

`CCCCCCCCCCCCCCCCCC(=O)N[C@@H](CCC(=O)N[C@@H](CCC(=O)N[C@@H](CCC(=O)NCCCC[C@H](NC(=O)COCC(=O)NCCCOCCOCCOCCCNC(=O)[C@H](CCCCNC(C)=O)NC(=O)[C@H](CCCCN)NC(=O)[C@H](CCCNC(=N)N)NC(=O)C(C)(C)NC(=O)[C@H](CO)NC(=O)[C@H](Cc1c[nH]c2ccccc12)NC(=O)[C@@H](NC(=O)[C@H](CO)NC(=O)[C@H](CCCC)NC(=O)CNC(=O)[C@H](CCC(=O)O)NC(=O)C(C)(C)NC(=O)C(C)(C)NC(=O)[C@@H](NC(=O)[C@H](CCCCNC(C)=O)NC(=O)[C@H](C)NC(=O)[C@H](CCCNC(=N)N)NC(=O)[C@@H](NC(=O)[C@H](CCCCN)NC(=O)[C@H](CCC(=O)O)NC(=O)[C@H](CCCNC(=N)N)NC(=O)CNC(=O)[C@H](CCC(=O)O)NC(=O)[C@H](CC(C)C)NC(C)=O)C(C)C)[C@@H](C)CC)[C@@H](C)O)C(N)=O)C(=O)O)C(=O)O)C(=O)O` [compound 18] (Ac-LEGREKVRAK(Ac)I[Aib][Aib]EG[Nle]STWS[Aib]RKK(Ac)-X9): the EC50 turned out to be 0.41 nM. The Emax under setting [1] is 83%. “127 (Ac-LEGREKVRAK(Ac)I[Aib][Aib]EG[Nle]STWS[Aib]RKLK([PEG2″-PEG2″-PEG2″-γGlu-γGlu-γGlu-Stearoyl])-NH2) [compound 127]”: the EC50 was 4.4 nM. For the same compound, the “EMax, OVCAR 5 cells (cAMP)” value under setting [1] is on record as 88%. Regarding `CCCCCCCCCCCCCCCC(=O)N[C@@H](CCC(=O)NCCCC[C@H](NC(=O)CC[C@H](NC(=O)CC[C@H](NC(=O)COCCOCCNC(=O)COCCOCCNC(=O)COCCOCCNC(=O)COCCOCCNC(=O)[C@H](CCCCNC(C)=O)NC(=O)[C@H](CCCCN)NC(=O)[C@H](CCCNC(=N)N)NC(=O)C(C)(C)NC(=O)[C@H](CO)NC(=O)[C@H](Cc1c[nH]c2ccccc12)NC(=O)[C@@H](NC(=O)[C@H](CO)NC(=O)[C@H](CCCC)NC(=O)CNC(=O)[C@H](CCC(=O)O)NC(=O)C(C)(C)NC(=O)C(C)(C)NC(=O)[C@@H](NC(=O)[C@H](CCCCNC(C)=O)NC(=O)[C@H](C)NC(=O)[C@H](CCCNC(=N)N)NC(=O)[C@@H](NC(=O)[C@H](CCCCN)NC(=O)[C@H](CCC(=O)O)NC(=O)[C@H](CCCNC(=N)N)NC(=O)CNC(=O)[C@H](CCC(=O)O)NC(=O)[C@H](CC(C)C)NC(C)=O)C(C)C)[C@@H](C)CC)[C@@H](C)O)C(=O)O)C(=O)O)C(N)=O)C(=O)O` [compound 116] (Ac-LEGREKVRAK(Ac)I[Aib][Aib]EG[Nle]STWS[Aib]RKK(Ac)[AEEA][AEEA][AEEA][AEEA][γGlu][γGlu]K([γGlu-Palmitoyl])-NH2), the EC50 is 1 nM. In addition, the Emax under setting [1] came to 89%.

Values taken from US10988523B2, “Modified lipidated Relaxin B chain peptides and their therapeutic use” (Sanofi, priority 2018, dated 2021).
